Measurements taken from patent publication US8791132B2, “Compounds and methods for treatment of hypertension” (Medivation Technologies, Inc., priority 2011, dated 2014).
Where “and” joins values, the source holds several entries; their conditions need not be identical. Equal entries are not always repeated.

Legend:
[1] = biological target: T1, human recombinant adrenergic α2B receptor (Homo sapiens, UniProt P18089); experiment: Radioligand binding, adrenergic α2B ([3H]Rauwolscine); details: for Percentage inhibition of ligand binding, Adrenergic α2B / inhibition at 0.03 µM: compound at 0.03 μM; for Percentage inhibition of ligand binding, Adrenergic α2B: 0.03 µM
T1 construct: expressed in transfected cells; host or cells: CHO-K1
T1 sequence (P18089 1-450): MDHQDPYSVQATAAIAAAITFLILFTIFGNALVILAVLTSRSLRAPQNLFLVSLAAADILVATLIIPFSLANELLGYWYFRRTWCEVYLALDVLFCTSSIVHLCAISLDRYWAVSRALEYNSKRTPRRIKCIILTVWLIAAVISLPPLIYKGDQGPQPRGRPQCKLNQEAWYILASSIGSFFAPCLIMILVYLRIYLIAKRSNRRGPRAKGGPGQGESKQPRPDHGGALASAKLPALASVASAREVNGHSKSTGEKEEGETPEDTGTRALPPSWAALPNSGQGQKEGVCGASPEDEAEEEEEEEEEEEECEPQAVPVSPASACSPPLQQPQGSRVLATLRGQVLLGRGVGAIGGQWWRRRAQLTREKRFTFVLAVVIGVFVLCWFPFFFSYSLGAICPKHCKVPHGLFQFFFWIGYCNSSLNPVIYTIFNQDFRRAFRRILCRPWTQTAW
Method in brief: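 Values are percent inhibition of specific radioligand binding. The receptor, expressed in CHO-K1 cells, was exposed to 2.5 nM [3H]Rauwolscine at 25° C for 60 min, with 10 μM Prazosin marking non-specific binding.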

[2] = biological target: T2, human recombinant adrenergic α2A receptor (Homo sapiens, UniProt P08913); experiment: Radioligand binding, adrenergic α2A ([3H]MK-912); details: compound at 0.1 μM, [3H]MK-912, repeat assays, each datapoint shown; for Percentage inhibition of ligand binding, Adrenergic α2A: 0.1 µM; for inhibition at 0.1 µM: read-out: Percentage inhibition of ligand binding, Adrenergic α2A
T2 construct: expressed in transfected cells; host or cells: insect Sf9 cells
T2 sequence (P08913 1-465): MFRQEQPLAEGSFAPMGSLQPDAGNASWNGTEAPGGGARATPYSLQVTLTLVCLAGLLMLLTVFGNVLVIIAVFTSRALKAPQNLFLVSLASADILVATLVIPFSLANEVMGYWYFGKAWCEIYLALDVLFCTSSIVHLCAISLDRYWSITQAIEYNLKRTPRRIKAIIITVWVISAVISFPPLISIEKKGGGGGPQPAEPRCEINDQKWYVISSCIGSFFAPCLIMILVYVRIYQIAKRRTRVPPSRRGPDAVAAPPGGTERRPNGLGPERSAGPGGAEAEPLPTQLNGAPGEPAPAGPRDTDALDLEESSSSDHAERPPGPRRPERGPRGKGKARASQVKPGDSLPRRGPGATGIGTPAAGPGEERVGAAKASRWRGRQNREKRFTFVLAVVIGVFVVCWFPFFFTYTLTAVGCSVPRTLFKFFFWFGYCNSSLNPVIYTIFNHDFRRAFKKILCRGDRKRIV
Method in brief: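 Displacement of 1 nM [3H]MK-912 from receptor produced in insect Sf9 cells was measured after 60 min at 25 °C. Readout: percent inhibition of specific binding.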

[3] = biological target: T3, rat adrenergic α1B receptor (Rattus norvegicus, UniProt P15823); experiment: Radioligand binding, adrenergic α1B ([3H]Prazosin); details: compound at 0.1 μM, [3H]Prazosin, repeat assays, each datapoint shown; for inhibition at 0.1 µM: read-out: Percentage inhibition of ligand binding, Adrenergic α1B
T3 construct: rat adrenergic α1B receptor obtained from Wistar Rat liver; from tissue; host or cells: Wistar rat liver
T3 sequence (P15823 1-515): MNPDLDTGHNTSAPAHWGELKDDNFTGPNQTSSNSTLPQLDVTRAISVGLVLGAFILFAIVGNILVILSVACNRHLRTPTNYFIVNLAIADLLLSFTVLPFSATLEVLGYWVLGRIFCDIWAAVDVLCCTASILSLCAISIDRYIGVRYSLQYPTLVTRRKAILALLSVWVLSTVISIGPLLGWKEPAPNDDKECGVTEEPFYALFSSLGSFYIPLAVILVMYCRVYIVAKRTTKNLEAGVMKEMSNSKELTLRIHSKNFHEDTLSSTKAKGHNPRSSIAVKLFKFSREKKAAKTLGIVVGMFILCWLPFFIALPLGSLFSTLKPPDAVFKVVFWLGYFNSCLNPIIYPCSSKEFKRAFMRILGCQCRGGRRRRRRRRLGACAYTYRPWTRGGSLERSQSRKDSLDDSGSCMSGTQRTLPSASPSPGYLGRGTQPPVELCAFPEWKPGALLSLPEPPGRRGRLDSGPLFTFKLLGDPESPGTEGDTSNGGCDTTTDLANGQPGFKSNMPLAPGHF
Method in brief: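 Rat α1B receptor from Wistar rat liver was incubated with 0.25 nM [3H]prazosin for 60 min at 25 °C in 50 mM Tris-HCl, pH 7.4, 0.5 mM EDTA. Non-specific binding was defined with 10 μM phentolamine. Bound radioligand was measured by filtration and counting, reported as percent inhibition of specific binding.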

[4] = [3H]Rauwolscine, repeat assays, each datapoint shown
[5] = [3H]Rauwolscine, repeat assays, each datapoint shown, read-out: Percentage inhibition of ligand binding, Adrenergic α2B

Percentage inhibition of ligand binding, Adrenergic α2B [1, 4] | Percentage inhibition of ligand binding, Adrenergic α2A [2] [%] | Percentage inhibition of ligand binding, Adrenergic α1B ([3]; 0.1 µM) [%] | other results | Compound
2% | 2 | 16 | – | Cc1ccc2c(c1)c1c(n2CC(C)(O)c2ccccn2)CN(C)CC1 (single isomer, unassigned) [16b, 1-(2,6-dimethyl-1,2,3,4-tetrahydro-β-carbolin-9-yl)-2-pyridin-2-yl-propan-2-ol]
32% | 19 | 13 | – | CN1Cc2c(n(CC(O)c3ccncc3)c3ncccc23)C(C)(C)C1 (single isomer, unassigned) [17a, 1-pyridin-4-yl-2-(6,8,8-trimethyl-5,6,7,8-tetrahydro-1,6,9-triaza-fluoren-9-yl)-ethanol]
20% | 9 | 16 | – | CN1Cc2c(n(CC(O)c3ccncc3)c3ncccc23)C(C)(C)C1 (single isomer, unassigned) [17b, 1-pyridin-4-yl-2-(6,8,8-trimethyl-5,6,7,8-tetrahydro-1,6,9-triaza-fluoren-9-yl)-ethanol]
– | – | 55 | inhibition at 0.03 µM [1, 5]: 54%; inhibition at 0.1 µM [2]: 50% | Cc1ccc2c(c1)c1c(n2CC(O)c2ccc(F)cc2)CN(C)CC1 (single isomer, unassigned) [18a, 2-(2,6-dimethyl-1,2,3,4-tetrahydro-β-carbolin-9-yl)-1-(4-fluoro-phenyl)-ethanol]
61% | 32 | 87 | – | Cc1ccc2c(c1)c1c(n2CC(O)c2ccc(F)cc2)CN(C)CC1 (single isomer, unassigned) [18b, 2-(2,6-dimethyl-1,2,3,4-tetrahydro-β-carbolin-9-yl)-1-(4-fluoro-phenyl)-ethanol]
75% | 21 | – | inhibition at 0.1 µM [3]: 75% | Cc1ccc2c(c1)c1c(n2CC(C)(O)c2ccncc2)CN(C)CC1 (single isomer, unassigned) [19a, 1-(2,6-dimethyl-1,2,3,4-tetrahydro-β-carbolin-9-yl)-2-pyridin-4-yl-propan-2-ol]
27% | 9 | 62 | – | Cc1ccc2c(c1)c1c(n2CC(C)(O)c2ccncc2)CN(C)CC1 (single isomer, unassigned) [19b, 1-(2,6-dimethyl-1,2,3,4-tetrahydro-β-carbolin-9-yl)-2-pyridin-4-yl-propan-2-ol]
– | – | 67 | inhibition at 0.03 µM [1, 5]: 28%; inhibition at 0.1 µM [2]: 29% | COc1ccc(C(O)Cn2c3c(c4cc(C)ccc42)CCN(C)C3)cc1 (single isomer, unassigned) [20a, 2-(2,6-dimethyl-1,2,3,4-tetrahydro-β-carbolin-9-yl)-1-(4-methoxy-phenyl)-ethanol]
36% | 28 | 94 | – | COc1ccc(C(O)Cn2c3c(c4cc(C)ccc42)CCN(C)C3)cc1 (single isomer, unassigned) [20b, 2-(2,6-dimethyl-1,2,3,4-tetrahydro-β-carbolin-9-yl)-1-(4-methoxy-phenyl)-ethanol]
−2% | −1 | 5 | – | Cc1ccc2c(c1)c1c(n2CC(O)c2cccnc2)CCN(CCO)C1 (single isomer, unassigned) [21a]
1% | −3 | −2 | – | Cc1ccc2c(c1)c1c(n2CC(O)c2cccnc2)CCN(CCO)C1 (single isomer, unassigned) [21b]
– | 16 | 19 | inhibition at 0.03 µM [1, 5]: 22% | Cc1ccc2c(c1)c1c(n2CC(O)c2ccccn2)CN(C)CC1 (single isomer, unassigned) [22a]
30% | 0 | 9 | – | Cc1ccc2c(c1)c1c(n2CC(O)c2ccccn2)CN(C)CC1 (single isomer, unassigned) [22b]
6% | 4 | −20 | – | CN1CCc2c(c3cc(C(C)(C)O)ccc3n2CC(O)c2ccncc2)C1 (single isomer, unassigned) [23a, 2-(2,3,4,5-tetrahydro-5-(2-hydroxy-2-(pyridin-4-yl)ethyl)-2-methyl-1H-pyrido[4,3-b]indol-8-yl)propan-2-ol]
−3% | 1 | 4 | – | CN1CCc2c(c3cc(C(C)(C)O)ccc3n2CC(O)c2ccncc2)C1 (single isomer, unassigned) [23b, 2-(2,3,4,5-tetrahydro-5-(2-hydroxy-2-(pyridin-4-yl)ethyl)-2-methyl-1H-pyrido[4,3-b]indol-8-yl)propan-2-ol]
63% | – | – | inhibition at 0.1 µM [2]: 8%; inhibition at 0.1 µM [3]: 8% | Cc1ccc2c(c1)c1c(n2CC(C)(O)c2cccnc2)CCNC1 (single isomer, unassigned) [24a]
29% | 15 | – | Percentage inhibition of ligand binding, Adrenergic α1B [3]: 8% | Cc1ccc2c(c1)c1c(n2CC(C)(O)c2cccnc2)CCNC1 (single isomer, unassigned) [24b]
75% and 88% | 12 | 15 | inhibition at 0.1 µM ([1]; compound at 0.1 μM, [3H]Rauwolscine, repeat assays, each datapoint shown, read-out: Percentage inhibition of ligand binding, Adrenergic α2B): 100%; Ki ([1]; read-out: Ki α2B): 3.06 nM | Cc1cnc2c(c1)c1c(n2CC(C)(O)c2cccnc2)CCN2CCCC12 (single isomer, unassigned) [26b]
1% and 7% | 19 | 1 | – | Cc1cnc2c(c1)c1c(n2CC(C)(O)c2cccnc2)CCN2CCCC12 (single isomer, unassigned) [26c]
6% and 11% | 0 | −2 | – | Cc1cnc2c(c1)c1c(n2CC(C)(O)c2cccnc2)CCN2CCCC12 (single isomer, unassigned) [26d]
